Assay: Gastrointestinal absorption of insulin, rat intestinal loop, plasma glucose (Experiment 1)
Format: in vivo, Wistar male rats
Method: Then 0.25 ml blood was collected from the jugular vein 0, 0.5, 1, 1.5, 2 and 3 hours after administration and the plasma glucose concentration was determined. The reduction in the plasma glucose concentration (D, % of initial*h) up to three hours after administration was calculated with the plasma glucose concentration before administration being 100. D was calculated by subtracting the plasma glucose area under concentration (% of initial*h) up to 3 hours after administration from the AUC with administration of normal saline only.
On the other hand, by way of comparison, a liquid of 6 mg bovine insulin dissolved in 20 ml normal saline liquid was administered to a large intestine loop in an amount corresponding to 600 μg/kg insulin, or as the control, 2 ml normal saline were administered to a large intestine loop and the plasma glucose concentration was determined as described above (Glucose CII Test Wako, Wako Pure Chemical Industries, Ltd.).

Q: What does the source list for “Comparison (E-SD not administered): 6 mg bovine insulin dissolved in 20 ml normal saline, without E-SD”?
A: AUC (plasma glucose) (rat intestinal loop, up to 3 hours after administration): 368.84 ± 63.19 % of initial*h; D (reduction in the plasma glucose concentration) (up to 3 hours, AUC with normal saline only minus AUC): 13.00 % of initial*h

Reference: US7923025B2, “Pharmaceutical composition for oral use with improved absorption” (Astellas Pharma Inc., priority 2003, dated 2011)
